Data: ChEMBL document CHEMBL5543158, “Design of Evodiamine-Glucose Conjugates with Improved In Vivo Antitumor Activity” (J Med Chem, 2024)
The source made the active and inactive calls. The calls are words filed in the database; no cut-off is given here.

Legend:
HCT-116 [1] = assay: Induction of apoptosis in 100 pmol GLUT1 siRNA treated human HCT-116 cells assessed as late apoptotic cells at 50 nM incubated for 48 hrs (reference value: 17.13%); assay type: functional
HCT-116 [2] = assay: Antiproliferative activity against human HCT116 cells in presence of 5 uM phloretin measured after 72 hrs by CCK-8 assay; assay type: functional, cell-based; conditions: HCT-116, 72 h
HCT-116 [3] = assay: Antiproliferative activity against human HCT116 cells in presence of 10 uM phloretin measured after 72 hrs by CCK-8 assay; assay type: functional, cell-based; conditions: HCT-116, 72 h
[4] = Cytotoxicity against HUVEC after 72 hrs by CCK-8 assay; assay type: toxicity, cell-based; conditions: human, HUVEC cells
[5] = Half life in mouse at 10 mg/kg, ip measured upto 24 hrs; assay type: ADME, organism-based; conditions: in vivo
[6] = Tmax in mouse at 10 mg/kg, ip measured upto 24 hrs; assay type: ADME, organism-based; conditions: in vivo
[7] = Cmax in mouse at 10 mg/kg, ip measured upto 24 hrs; assay type: ADME, organism-based; conditions: in vivo
[8] = AUC (0 to t)in mouse at 10 mg/kg, ip measured upto 24 hrs; assay type: ADME, organism-based; conditions: in vivo
[9] = MRT (0 to t) in mouse at 10 mg/kg, ip measured upto 24 hrs; assay type: ADME, organism-based; conditions: in vivo
[10] = Half life in mouse at 20 mg/kg, ip measured upto 24 hrs; assay type: ADME, organism-based; conditions: in vivo
[11] = Tmax in mouse at 20 mg/kg, ip measured upto 24 hrs; assay type: ADME, organism-based; conditions: in vivo
[12] = Cmax in mouse at 20 mg/kg, ip measured upto 24 hrs; assay type: ADME, organism-based; conditions: in vivo
[13] = AUC (0 to t)in mouse at 20 mg/kg, ip measured upto 24 hrs; assay type: ADME, organism-based; conditions: in vivo
[14] = MRT (0 to t) in mouse at 20 mg/kg, ip measured upto 24 hrs; assay type: ADME, organism-based; conditions: in vivo
[15] = Plasma protein binding mouse plasma at 2 uM; assay type: ADME, cell-free; conditions: read-out: PPB (converted)
[16] = Unbound drug concentration in mouse plasma at 2 uM; assay type: ADME, cell-free
[17] = Stability of the compound in mouse serum assessed as compound remaining measured upto 120 mins; assay type: ADME, cell-free; conditions: read-out: Stability
HCT-116 [18] = assay: In vivo antitumor effect in human HCT-116 cells xenografted mouse model assessed as tumor growth inhibition at 10 mg/kg, ip twice a day administered 21 consecutive days; assay type: functional; conditions: read-out: TGI
HCT-116 [19] = assay: In vivo antitumor effect in human HCT-116 cells xenografted mouse model assessed as tumor growth inhibition at 20 mg/kg, ip twice a day administered 21 consecutive days; assay type: functional; conditions: read-out: TGI
[20] = Toxicity in mouse xenografted with human HCT-116 cells assessed as organ damage by measuring change in heart at 10 mg/kg, ip twice a day administered 21 consecutive days; assay type: organism-based; conditions: in vivo
[21] = Toxicity in mouse xenografted with human HCT-116 cells assessed as organ damage by measuring change in liver at 10 mg/kg, ip twice a day administered 21 consecutive days; assay type: organism-based; conditions: in vivo
[22] = Toxicity in mouse xenografted with human HCT-116 cells assessed as organ damage by measuring change in spleen at 10 mg/kg, ip twice a day administered 21 consecutive days; assay type: organism-based; conditions: in vivo
[23] = Toxicity in mouse xenografted with human HCT-116 cells assessed as organ damage by measuring change in lungs at 10 mg/kg, ip twice a day administered 21 consecutive days; assay type: organism-based; conditions: in vivo
[24] = Toxicity in mouse xenografted with human HCT-116 cells assessed as organ damage by measuring change in kidney at 10 mg/kg, ip twice a day administered 21 consecutive days; assay type: organism-based; conditions: in vivo
HCT-116 [25] = assay: In vivo antitumor effect in human HCT-116 cells xenografted mouse model assessed as decrease in dense tumor tissue at 10 to 20 mg/kg, ip twice a day administered 21 consecutive days by H and E staining based assay; assay type: functional, organism-based; conditions: dose 10-20 mg/kg
HCT-116 [26] = assay: In vivo antitumor effect in human HCT-116 cells xenografted mouse model assessed as induction of apoptosis in tumor at 10 to 20 mg/kg, ip twice a day administered 21 consecutive days by TUNEL based assay; assay type: functional, organism-based; conditions: dose 10-20 mg/kg
HCT-116 [27] = assay: In vivo antitumor effect in human HCT-116 cells xenografted mouse model assessed as inhibition of tumor cell proliferation by measuring Ki67 at 10 to 20 mg/kg, ip twice a day administered 21 consecutive days by TUNEL based assay; assay type: functional, organism-based; conditions: dose 10-20 mg/kg

SMILES: CN1c2ccc(F)cc2C(=O)N2CCc3c([nH]c4ccc(O[C@@H]5O[C@H](CO)[C@@H](O)[C@H](O)[C@H]5O)cc34)[C@H]21
- Activity (HCT-116 [1]): 21.75%
- IC50 (HCT-116 [2]): 210 nM
- IC50 (HCT-116 [3]): 430 nM
- IC50 at 72 h [4]: 221 nM
- half-life [5]: 145 min
- Tmax [6]: 30 min
- Cmax [7]: 4630 ng/mL
- AUC(0-t) at 24 h [8]: 4010 ng·h/mL
- MRT last at 24 h [9]: 48.1 min
- half-life [10]: 372 min
- Tmax [11]: 30 min
- Cmax [12]: 8840 ng/mL
- AUC(0-t) at 24 h [13]: 8430 ng·h/mL
- MRT last at 24 h [14]: 59.5 min
- fraction unbound at 2 µM [15]: 0.101
- Cp(f) [16]: 85.1 ng/mL
- remaining at 2 h [17]: 100%
- inhibition in vivo at 10 mg/kg (HCT-116 [18]): 72%
- inhibition in vivo at 20 mg/kg (HCT-116 [19]): 82%
- Activity [20]: Non-Toxic
- Activity [21]: Non-Toxic
- Activity [22]: Non-Toxic
- Activity [23]: Non-Toxic
- Activity [24]: Non-Toxic
- Activity (HCT-116 [25]): Active
- Activity (HCT-116 [26]): Active
- Activity (HCT-116 [27]): Active
